# Measurements published in ChEMBL document CHEMBL3286119, “Biarylmethoxy Nicotinamides As Novel and Specific Inhibitors of Mycobacterium tuberculosis” (ACS Med Chem Lett, 2014).
# Tests used:
# [1] = Cytotoxicity against human THP1 cells after 24 hrs by resazurin assay; assay type: cell-based, THP-1; conditions: read-out: MIC
# [2] = system: Mycobacterium tuberculosis; experiment: Antimicrobial activity against Mycobacterium tuberculosis H37Rv ATCC 27294 after 5 days by microdilution method; assay type: functional; conditions: H37Rv ATCC 27294, 120 h
# [3] = Lipophilicity, log D of the compound; assay type: physicochemical; conditions: octanol/water
Structure (SMILES),MCC at 24 h [1],MIC [2],logD [3]
Cn1ccnc1-c1ccc(COc2ncccc2C(N)=O)cc1,> 50 µM,> 100 µM,
Cc1cc(OCCN2CCOCC2)ccc1-c1ccc(COc2ncccc2C(N)=O)nc1,> 50 µM,8.9 µM,
COc1ccc(-c2ccc(COc3ncccc3C(N)=O)cc2)c(C)n1,> 50 µM,> 100 µM,
CNS(=O)(=O)c1cccnc1OCc1ccc(-c2ccc(OCCOC)cc2C)cn1,> 50 µM,50 µM,
Cc1cc(OCC2CCCO2)ccc1-c1ccc(COc2ncccc2C(N)=O)nc1 (stereo unspecified),> 50 µM,4.7 µM,2.8
COc1ccc(-c2ccc(COc3ncccc3C(N)=O)nc2)c(C(F)(F)F)c1,,39.7 µM,
COc1ccc(-c2ccc(COc3ncccc3C(N)=O)nc2)c(F)c1,> 50 µM,16.9 µM,
COCCOc1ccc(-c2ccc(COc3nccc(OC)c3C(N)=O)nc2)c(C)c1,> 50 µM,6.2 µM,
COc1ccc(-c2ccc(COc3ncccc3C(N)=O)nc2)c(C)c1,> 50 µM,22 µM,
Cc1cc(OC[C@H]2CCCO2)ccc1-c1ccc(COc2ncccc2C(N)=O)nc1,> 50 µM,4.7 µM,
COCCOc1ccc(-c2ccc(COc3ncccc3C(=O)NCCO)nc2)c(C)c1,> 50 µM,4.5 µM,
COCCOc1ccc(-c2cnc(COc3ncccc3C(N)=O)nc2)c(Cl)c1,> 250 µM,0.47 µM,
COCCOc1ccc(-c2ccc(COc3ncccc3C(=O)N(C)C)nc2)c(C)c1,> 50 µM,> 75 µM,
